Test [1] relates to Caspase-9 −/− thymocytes. Briefly: Apoptosis assay using thymocytes (Annexin V / 7-AAD, FACS). The following applies: Caspase-9 −/− thymocytes vs wild type; 2 μM dexamethasone, 1 μM staurosporine or 1 μg/ml anti-mouse Fas antibody plus cycloheximide; 6 hr or 24 hr. The class given is cell-based, mice. The text has this: To investigate the role of Caspase-9 in apoptosis pathways in other systems, we used primary cultures of thymocytes. Although thymocytes from Caspase9 −/− animals developed normally with no differences in the number of thymocytes or in the ratio of surface markers such as CD4, CD8 or CD3 (data not shown), we challenged the thymocytes with several apoptotic stimuli: dexamethasone, staurosporine, and anti-Fas antibody
(§1) Thymocytes were isolated from wild type and Caspase9 −/− mice. One million cells were treated with 2 μM dexamethasone (Sigma), 1 μM staurosporine (Sigma), 1 μg/ml anti-mouse Fas antibody (PharMingen) plus […] cycloheximide (Sigma), or 10% FCS medium only for 6 hr or 24 hr. Samples were stained with Annexin V (Boehringer Mannheim) and 7-aminoactinomycin D (7-AAD) (Sigma) to label apoptotic cells for FACS Sort (Becton Dickinson).

Test [2] has as its system Caspase-9 −/− thymocytes. As to the kind of experiment: DNA fragmentation assay (DNA laddering on agarose gel). The format is cell-based, mice. On the procedure:
as §1
DNA was isolated using a DNA isolation kit (LeMax Biotech) and subjected to electrophoresis on a 2% agarose gel. Gels were stained by ethidium bromide and images were taken by a scanner.

As for `CN[C@@H]1C[C@H]2O[C@@](C)([C@@H]1OC)n1c3ccccc3c3c4c(c5c6ccccc6n2c5c31)C(=O)NC4` [staurosporine], in the test with Caspase-9 −/− thymocytes [1], the “thymocyte survival / induced cell death” value is “reduced survival which was comparable to the death seen in controls”. Besides, the DNA laddering entry in the test on Caspase-9 −/− thymocytes [2] (Caspase-9 deficient thymocytes, up to 24 hours of treatment) is recorded as “DNA laddering was also eliminated”. The “DNA cleavage after long-term treatment” value in the test with Caspase-9 −/− thymocytes [2] (Caspase-9 −/− thymocytes, 36 and 48 hours of continual treatment (data not shown)) is recorded as “did begin to cleave their DNA”.

These data come from patent publication US20040255343A1, “Caspase-9 deficient animals and the use thereof” (priority 1998, published 2004).
